Source: patent publication US11352365B2, “Biased potent opioid-like agonists as improved medications to treat chronic and acute pain and methods of using the same” (THE UNITED STATES OF AMERICA, AS REPRESENTED BY THE …, priority 2018, dated 2022)
Where two headings read alike, the source gives them in different places.

How the values were obtained:
[1] = molecular target: T1, MOR (Homo sapiens, UniProt P35372); assay: cell-based; type: cell-based; set-up: host or cells: U2OS-β-arrestin2-EFC-hMOR
Method: The PathHunter β-arrestin assay. The assay was performed according to the manufacturer's protocol (DiscoveRx) and as described previously. Briefly, 5000 U2OS-β-arrestin2-EFC-hMOR cells were plated in 384-well white plates with Opti-MEM media (Invitrogen) containing 1% FBS±pertussis toxin (100 ng/ml) overnight. The next day, cells were treated with compounds for 90 min at 37° C., followed by a 1-hour incubation of detection reagent at room temperature. Luminescence values were determined by using a Synergy HT luminometer (BioTek).

[2] = molecular target: T1, MOR; assay: cell-based; type: cell-based; set-up: expressed in transfected cells; host or cells: CHO-hMOR (membrane variant); SH-SY5Y-hMOR also named
Method: Four thousand cells per well were split into 384-well low-volume plate (VWR) with Opti-MEM (Invitrogen) supplemented with 1% FBS for 3 hours at 37° C. except SH-SY5Y-hMOR cells, which were plated for 1 hour at 37° C. Cells were then treated with drugs, […] forskolin for 30 min at room temperature.
Cells were then homogenized by a Dounce homogenizer 15 times in an ice-cold buffer [50 mM Hepes (pH 7.4)], followed by centrifugation at 500 g at 4° C. for 5 min. The supernatant was transferred to a 1.5-ml tube on ice, and the pellet was resuspended, homogenized, and centrifuged at 500 g at 4° C. for 5 min. Then, the supernatant was combined and spun at 20,000 g at 4° C. for 10 min. The membrane pellet was resuspended in an ice-cold buffer [50 mM Hepes (pH 7.4)] at concentrations of […]. Membranes were stored at −80° C. until use. For forskolin-stimulated cAMP accumulation assay, membranes were diluted in an assay buffer (50 mM Hepes, 10 mM MgCl2, 100 mM NaCl, 200 mM adenosine 5′-triphosphate, 10 mM GTP, 100 mM 3-isobutyl-1-methylxanthine, 20 mM forskolin, and 30 mM bovine serum albumin) and plated at […] of protein in each well. Membranes were treated with test compounds for 30 min at room temperature. The cAMP levels were determined as per the manufacturer's instructions (Cisbio cAMP HiRange assay).

[3] = molecular target: T1, MOR; type: cell-based; set-up: expressed in transfected cells; host or cells: CHO-hMOR (membrane variant); SH-SY5Y-hMOR also named
[4] = test system: δ and μ opioid receptors; assay: In vitro potency ratio at δ and μ opioid receptors; type: cell-based
[5] = test system: Male Swiss-Webster mice; assay: Respiration rate and arterial oxygen saturation (MouseOx pulse oximeter) in conscious mice; conditions: for respiratory depression in mice: equi-analgesic dose range of morphine
Method: Measurement of respiration rate and arterial oxygen saturation. […] They were housed (five in a cage) in a temperature-controlled environment with a 12-hour light-dark cycle and were supplied with food and water ad libitum. Mice were acclimated for a week in the central animal facility before behavioral testing. On the day of the experiment, mice were brought to the room and acclimated for 45-60 min in the observation boxes. Respiration and oxygen saturation (SpO2) were measured using MouseOx Plus Rat and Mouse Pulse Oximeter (Starr Life Sciences Corp, Oakmont, USA) in conscious, freely moving animals. […] Mice were then placed into observation boxes and recording was started 5 min later to eliminate any anesthesia effect.
Data are expressed as mean±standard error of the mean (S.E.M.), and p<0.05 was accepted as statistically significant. GraphPad Prism, version 7, was used for data analysis.

[6] = molecular target: T1, MOR; set-up: host or cells: U2OS-β-arrestin2-EFC-hMOR; conditions: cited from earlier work
[7] = molecular target: T2, δ opioid receptor (Rattus norvegicus, UniProt P33533); assay: Binding assay, 3H DADLE, rat tissue; conditions: triplicate, read-out: 3H DADLE δ Ki ± SEM
T2 construct: from tissue; host or cells: rat tissue (per the earlier reading)

[8] = molecular target: T3, κ opioid receptor (Rattus norvegicus, UniProt P34975); assay: Binding assay, 3H U69,593, rat tissue; conditions: rat tissue, triplicate; read-out: 3H U69,593 κ Ki ± SEM
T3 construct: from tissue; host or cells: rat tissue (per the earlier reading)

[9] = molecular target: T4, KOR (Homo sapiens, UniProt P41145); assay: KOR cAMP agonist assay; type: cell-based; conditions: Table 1; read-out: KOR cAMP Agonist Potency ± SEM
[10] = molecular target: T4, KOR; assay: KOR cAMP antagonist assay; type: cell-based
[11] = molecular target: μ opioid receptor (Rattus norvegicus, UniProt P33535); assay: biochemical
[12] = read-out: MOR Mediated B-arrestin Recruitment (% Control, Emax DAMGO), Table 2
[13] = Table 2, read-out: MOR cAMP Agonist (% Efficacy) (converted)
[14] = Table 4, read-out: MOR cAMP Agonist Potency ± SEM
[15] = Table 3, read-out: MOR cAMP Agonist (% Efficacy) (converted)
[16] = Table 3, read-out: MOR Mediated B-arrestin Recruitment
[17] = Table 3, inhibition of forskolin-induced cAMP accumulation, read-out: MOR cAMP Agonist Potency ± SEM
[18] = Table 2, read-out: MOR Mediated B-arrestin Recruitment
[19] = Table 2, inhibition of forskolin-induced cAMP accumulation, read-out: MOR cAMP Agonist Potency ± SEM

T1 sequence (P35372 whole entry): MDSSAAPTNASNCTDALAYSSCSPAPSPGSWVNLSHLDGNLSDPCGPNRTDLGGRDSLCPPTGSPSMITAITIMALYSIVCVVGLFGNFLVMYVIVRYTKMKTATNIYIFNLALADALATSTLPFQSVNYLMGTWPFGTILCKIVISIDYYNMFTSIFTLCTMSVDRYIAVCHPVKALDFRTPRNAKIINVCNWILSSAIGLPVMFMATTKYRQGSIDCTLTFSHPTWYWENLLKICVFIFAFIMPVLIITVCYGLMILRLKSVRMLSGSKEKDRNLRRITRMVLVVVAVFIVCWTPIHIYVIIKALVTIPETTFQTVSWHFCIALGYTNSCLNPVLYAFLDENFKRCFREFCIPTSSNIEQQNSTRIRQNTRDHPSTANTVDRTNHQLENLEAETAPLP
T4 sequence (P41145 whole entry): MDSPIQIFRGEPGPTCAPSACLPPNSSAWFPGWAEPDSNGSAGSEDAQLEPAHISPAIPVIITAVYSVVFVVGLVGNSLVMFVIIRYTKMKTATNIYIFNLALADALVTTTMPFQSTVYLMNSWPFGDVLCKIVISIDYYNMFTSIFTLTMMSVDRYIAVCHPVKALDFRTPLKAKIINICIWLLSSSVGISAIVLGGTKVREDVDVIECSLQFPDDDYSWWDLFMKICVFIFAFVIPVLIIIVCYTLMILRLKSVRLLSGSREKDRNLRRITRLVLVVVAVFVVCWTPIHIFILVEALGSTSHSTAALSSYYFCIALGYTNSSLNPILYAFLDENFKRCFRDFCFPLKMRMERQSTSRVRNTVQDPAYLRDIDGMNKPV
T3 sequence (P34975 whole entry): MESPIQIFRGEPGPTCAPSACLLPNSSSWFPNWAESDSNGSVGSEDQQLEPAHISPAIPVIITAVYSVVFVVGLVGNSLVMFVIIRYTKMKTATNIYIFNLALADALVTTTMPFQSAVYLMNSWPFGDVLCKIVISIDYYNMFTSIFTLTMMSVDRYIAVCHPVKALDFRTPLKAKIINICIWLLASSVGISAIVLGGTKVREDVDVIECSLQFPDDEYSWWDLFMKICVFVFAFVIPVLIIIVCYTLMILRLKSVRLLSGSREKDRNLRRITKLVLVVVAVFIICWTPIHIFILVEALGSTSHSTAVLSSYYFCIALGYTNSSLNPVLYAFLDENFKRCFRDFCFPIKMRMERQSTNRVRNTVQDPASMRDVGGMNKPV
Chain of μ opioid receptor (P33535 whole entry): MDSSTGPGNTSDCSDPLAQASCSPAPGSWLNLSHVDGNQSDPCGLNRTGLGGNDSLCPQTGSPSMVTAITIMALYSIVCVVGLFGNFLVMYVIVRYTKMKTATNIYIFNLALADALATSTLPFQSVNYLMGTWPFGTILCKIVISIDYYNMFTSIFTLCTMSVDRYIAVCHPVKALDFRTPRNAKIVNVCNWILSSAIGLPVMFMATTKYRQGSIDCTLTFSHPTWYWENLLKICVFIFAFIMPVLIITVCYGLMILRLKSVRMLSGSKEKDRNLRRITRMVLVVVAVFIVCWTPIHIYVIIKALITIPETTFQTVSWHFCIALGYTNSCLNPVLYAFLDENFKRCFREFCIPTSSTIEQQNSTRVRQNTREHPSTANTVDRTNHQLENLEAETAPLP
T2 sequence (P33533 whole entry): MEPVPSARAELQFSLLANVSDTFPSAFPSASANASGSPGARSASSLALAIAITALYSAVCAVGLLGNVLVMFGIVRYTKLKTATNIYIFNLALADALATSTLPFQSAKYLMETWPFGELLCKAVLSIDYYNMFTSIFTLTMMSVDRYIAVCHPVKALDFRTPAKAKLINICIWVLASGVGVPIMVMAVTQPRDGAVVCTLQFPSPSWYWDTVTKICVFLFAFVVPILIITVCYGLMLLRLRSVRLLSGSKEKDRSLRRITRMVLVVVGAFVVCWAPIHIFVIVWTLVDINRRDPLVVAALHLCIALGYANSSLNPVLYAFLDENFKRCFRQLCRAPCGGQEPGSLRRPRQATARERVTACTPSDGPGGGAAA

Q: For `CCOC(=O)/C=C1\[C@H]2CCC[C@]1(c1cccc(O)c1)CCN2CCc1ccccc1` [Compound 26, Ethyl (Z)-2-(5-(3-hydroxyphenyl)-2-phenethyl-2-azabicyclo[3.3.1]nonan-9-ylidene)acetate], which Emax [1, 12] is on record?
A: 22.2%

Q: And the Emax [2, 13]?
A: 100%

Q: What about the “Bias Factor” value ([3]; Table 2) of the same molecule?
A: 179

Q: Which “δ/μ ratio (in vitro potency ratio at δ and μ opioid receptors)” value [4] does the source give for `O=C1CCC2C3Cc4ccc(O)c5c4[C@@]2(CCN3CCc2ccc(Cl)cc2)[C@H]1O5` (stereo partly drawn) [Compound 71, 3-(4-Chlorophenethyl)-9-hydroxy-2,3,4,4a,5,6-hexahydro-1H-4,12-methanobenzofuro[3,2-e]isoquinolin-7(7aH)-one] here?
A: approximately 1

Q: What about the “respiratory depression in mice” value [5] of the same molecule?
A: did not depress respiration

Q: And the “effect on respiration rate (AUC 6 min to 45 min post injection) compared to saline” value ([5]; mice, s.c., 0.01-0.1 mg/kg)?
A: no effect on respiration rate

Q: And the EC50 ([1]; Table 4, read-out: MOR Mediated B-arrestin Recruitment)?
A: 2.44 ± 0.45 nM

Q: And the Emax ([1]; read-out: MOR Mediated B-arrestin Recruitment (% Control, Emax DAMGO), Table 4)?
A: 44.8%

Q: What about the Emax ([2]; Table 4, read-out: MOR cAMP Agonist (% Efficacy) (converted)) of the same molecule?
A: 98.8%

Q: What about the EC50 [2, 14] of the same molecule?
A: 0.05 ± 0.03 nM

Q: And the “Bias Factor” value ([3]; Table 4)?
A: 0.82

Q: For `Oc1cccc(C23CCC[C@H]([C@H]2O)N(C/C=C/c2ccccc2)CC3)c1` (stereo in doubt) [Compound 52, (1R,5R,9S)-2-Cinnamyl-5-(3-hydroxyphenyl)-2-azabicyclo[3.3.1]nonan-9-ol], which Emax [2, 15] is on record?
A: 100%

Q: And the “Bias Factor” value ([3]; Table 3)?
A: 27.120

Q: What does the source list for `O=C1CCC2C3Cc4ccc(O)c5c4[C@@]2(CCN3CCc2ccc(Br)cc2)[C@H]1O5` (stereo partly drawn) [Compound 72, 3-(4-Bromophenethyl)-9-hydroxy-2,3,4,4a,5,6-hexahydro-1H-4,12-methanobenzofuro[3,2-e]isoquinolin-7(7aH)-one]?
A: δ/μ ratio (in vitro potency ratio at δ and μ opioid receptors) [4]: approximately 5; EC50 [2, 14]: 0.15 ± 0.04 nM; agonist character at the mu-receptor (in words) ([2]; in vitro data): potent μ agonist

Q: For `COc1ccsc1CNCC[C@@]1(c2ccccn2)CCOC2(CCCC2)C1` [TRV130], which “beta-arrestin recruitment (in words), noted for known compound” value [6] is on record?
A: does recruit beta-arrestin slightly

Q: Which EC50 [1, 16] does the source give for `C[C@H]1[C@H]2CCC[C@@]1(c1cccc(O)c1)CCN2CCc1ccccc1` [(+)-48] here?
A: 7.72 ± 4.6 nM

Q: And the Emax ([1]; read-out: MOR Mediated B-arrestin Recruitment (% Control, Emax DAMGO), Table 3)?
A: 1.8%

Q: And the EC50 [2, 17]?
A: 0.4 ± 0.12 nM

Q: What about the Emax [2, 15] of the same molecule?
A: 91%

Q: And the “Bias Factor” value ([3]; Table 3)?
A: 6.7

Q: With `Oc1cccc([C@]23CCC[C@H]([C@H]2O)N(C[C@H]2C[C@@H]2c2ccccc2)CC3)c1` (stereo in doubt) [Compound 45, (1R,5S,9R)-5-(3-hydroxyphenyl)-2-((trans-2-phenylcyclopropyl)methyl)-2-azabicyclo[3.3.1]nonan-9-ol] as the molecule, how does the EC50 [1] read?
A: 22 nM

Q: And the Emax ([1]; read-out: MOR Mediated B-arrestin Recruitment (% Control, Emax DAMGO))?
A: 22%

Q: And the EC50 [2]?
A: 0.12 nM

Q: And the Emax ([2]; read-out: MOR cAMP Agonist (% Efficacy))?
A: 100%

Q: What about the “Bias Factor” value [3] of the same molecule?
A: 6.1

Q: With `C[C@@H]1[C@@H]2CCC[C@@]1(c1cccc(O)c1)CCN2CCc1ccccc1` (single isomer, unassigned) [(−)-48] as the molecule, how does the EC50 [1, 16] read?
A: > 25000 nM

Q: What about the EC50 [2, 17] of the same molecule?
A: 12.1 ± 4.01 nM

Q: With `C[C@@H]1C2CCC[C@@]1(c1cccc(O)c1)CCN2CCc1ccccc1` (single isomer, unassigned; (-)) [(−)-48] as the molecule, how does the Emax [2, 15] read?
A: 71%

Q: For `C[C@@H](NC(=O)[C@@H](N)Cc1ccc(O)cc1)C(=O)NCC(=O)N(C)[C@@H](Cc1ccccc1)C(=O)NCCO` [DAMGO, reference compound], which “Bias Factor” value [3] is on record?
A: 1

Q: For `C[C@@H]1[C@@H]2CCC[C@@]1(c1cccc(O)c1)CCN2CCc1ccccc1` [(−)-48], which “Bias Factor” value ([3]; Table 3) is on record?
A: 2056

Q: Which Ki [7] does the source give for `COC(=O)CC[C@H]1[C@@H]2CCC[C@@]1(c1cccc(O)c1)CCN2CCc1ccccc1` [Compound 8, Methyl 3-((1S,5R,9R)-5-(3-hydroxyphenyl)-2-phenethyl-2-azabicyclo[3.3.1]nonan-9-yl)propanoate] here?
A: 118 ± 7.41 nM

Q: What about the Ki [8] of the same molecule?
A: 23.2 ± 3.11 nM

Q: And the EC50 [9]?
A: > 10 µM

Q: What about the “KOR cAMP Antagonist Potency ± SEM” value ([10]; Table 1) of the same molecule?
A: 2.0 ± 0.4 nM

Q: And the “activity at the kappa-receptor (in words)” value ([10]; in vitro data)?
A: kappa-receptor antagonist

Q: And the Ki [11]?
A: 0.9 ± 0.04 nM

Q: What about the “beta-arrestin recruitment (in words)” value [1] of the same molecule?
A: do not

Q: What about the EC50 ([1]; Table 1, read-out: MOR Mediated β-arrestin Recruitment) of the same molecule?
A: > 25000 nM

Q: And the Emax ([1]; read-out: MOR Mediated β-arrestin Recruitment (% Control, Emax DAMGO), Table 1)?
A: 0%

Q: For `CCOC(=O)C[C@@H]1[C@H]2CCC[C@]1(c1cccc(O)c1)CCN2CCc1ccccc1` [Compound 27, Ethyl 2-(5-(3-hydroxyphenyl)-2-phenethyl-2-azabicyclo[3.3.1]nonan-9-yl)acetate], which EC50 [1, 18] is on record?
A: 175 ± 42.6 nM

Q: What about the Emax [1, 12] of the same molecule?
A: 1.5%

Q: What about the EC50 [2, 19] of the same molecule?
A: 14.6 ± 3.99 nM

Q: And the Emax [2, 13]?
A: 90.4%

Q: And the “Bias Factor” value ([3]; Table 2)?
A: 6.7

Q: What does the source list for `OC[C@@H]1CC[C@@]2(c3cccc(O)c3)CCN(CCc3ccccc3)[C@H]1C2` (stereo in doubt) [Compound 35, 3-(8-(Hydroxymethyl)-2-phenethyl-2-azabicyclo[3.3.1]nonan-5-yl)phenol]?
A: EC50 [1, 18]: > 25000 nM; EC50 [2, 19]: 3.07 ± 2.2 nM; Emax [2, 13]: 10.9%; Bias Factor ([3]; Table 2): 1254

Q: Which EC50 [1, 16] does the source give for `Oc1cccc2c1O[C@H]1CN(CCc3ccccc3)[C@H]3CCC[C@@]21C3` [Compound 70, (3S,6aR,11aR)-2-Phenethyl-1,3,4,5,6,11a-hexahydro-2H-3,6a-methano-benzofuro[2,3-c]azocin-10-ol] here?
A: > 25000 nM

Q: And the EC50 [2, 17]?
A: 0.5 ± 0.24 nM

Q: And the Emax [2, 15]?
A: 32.8%

Q: And the “Bias Factor” value ([3]; Table 3)?
A: 21454

Q: With `OC/C=C/[C@H]1[C@@H]2CCC[C@@]1(c1cccc(O)c1)CCN2CCc1ccccc1` [Compound 37, 3-((1S,5R,9R)-9-((E)-3-Hydroxyprop-1-en-1-yl)-2-phenethyl-2-azabicyclo[3.3.1]nonan-5-yl)phenol] as the molecule, how does the EC50 [2, 19] read?
A: 2.31 ± 0.78 nM

Q: And the Emax [2, 13]?
A: 33.5%

Q: What about the “Bias Factor” value ([3]; Table 2) of the same molecule?
A: 6794

Q: For `CCOC(=O)C[C@H]1[C@@H]2CCC[C@@]1(c1cccc(O)c1)CCN2CCc1ccccc1` [Compound 28, Ethyl 2-(5-(3-hydroxyphenyl)-2-phenethyl-2-azabicyclo[3.3.1]nonan-9-yl)acetate], which EC50 [1, 18] is on record?
A: 58.8 ± 34.7 nM

Q: What about the Emax [1, 12] of the same molecule?
A: 2.18%

Q: And the EC50 [2, 19]?
A: 3.97 ± 1.8 nM

Q: And the Emax [2, 13]?
A: 78%

Q: And the “Bias Factor” value ([3]; Table 2)?
A: 4.8

Q: With `CN1CC[C@]23c4c5ccc(O)c4O[C@H]2[C@@H](O)C=C[C@H]3[C@H]1C5` [Morphine, reference compound] as the molecule, how does the “respiratory depression in mice” value [5] read?
A: did repress respiration

Q: With `CCC[C@H]1[C@@H]2CCC[C@@]1(c1cccc(O)c1)CCN2CCc1ccccc1` [Compound 15, 3-(2-Phenethyl-9-propyl-2-azabicyclo[3.3.1]nonan-5-yl)phenol] as the molecule, how does the EC50 [2, 19] read?
A: 0.95 ± 0.35 nM

Q: What about the Emax [2, 13] of the same molecule?
A: 63.3%

Q: What about the “Bias Factor” value ([3]; Table 2) of the same molecule?
A: 23,442
